Test results published in patent US4299915A (priority 1977, dated 1981).
Where two headings read alike, the source gives them in different places.

Legend:
[1] = test system: 5-methyltryptophan-sensitive bacteria; conditions: cited from earlier work
[2] = test system: 8AG^R clones; format: cell-based, S. typhimurium; conditions: for plating efficiency, 8AG w/cells: 50 ug/ml 8AG plus 10^6 8AG^S cells; for plating efficiency, 8AG: 50 ug/ml 8AG, control 1.00
[3] = test system: 8AG^R mutants; assay: Uptake of tagged 8AG by 8AG^R mutant clones; format: cell-based, S. typhimurium
[4] = test system: wild-type control; format: cell-based, S. typhimurium
[5] = test system: S. typhimurium strain TM35
[6] = test system: 8AG^R mutant fraction of S. typhimurium cultures
[7] = test system: mixed population of 8AG^S and 8AG^R cells; assay: Reconstruction experiment 2: mixed 8AG^R/8AG^S population exposed to the mutation assay protocol; conditions: 2 hr

Cc1ccc2[nH]cc(C[C@H](N)C(=O)O)c2c1 [5-methyltryptophan]
growth inhibition of 5-methyltryptophan-sensitive bacteria [1]: not completely inhibited
effect of varying the concentration on observed mutant fraction ([1]; varying concentration): changes the observed mutant fraction

Nc1nc2nn[nH]c2c(=O)[nH]1 [8AG, 8-azaguanine]
effect on plating efficiency, 8AG alone [2]: no effect
effect on plating efficiency, 8AG with 8AG^S cells [2]: did decrease plating efficiency slightly
plating efficiency, 8AG w/cells ([2]; clone S-1): 0.8 ± .07
plating efficiency, 8AG ([2]; clone S-1): 0.93 ± .05
plating efficiency, 8AG w/cells ([2]; clone S-2): 1.04 ± .03
plating efficiency, 8AG ([2]; clone S-2): 1.16 ± .03
plating efficiency, 8AG w/cells ([2]; clone S-3, * statistically less than control (p < .05)): 0.87 ± .08
plating efficiency, 8AG ([2]; clone S-3): 0.95 ± .03
plating efficiency, 8AG w/cells ([2]; clone S-4, * statistically less than control (p < .05)): 0.83 ± .03
plating efficiency, 8AG ([2]; clone S-4): 0.98 ± .01
plating efficiency, 8AG w/cells ([2]; clone S-5, * statistically less than control (p < .05)): 0.73 ± .08
plating efficiency, 8AG ([2]; clone S-5): 0.92 ± .01
activity (8AG incorporation), mutants with no detectable activity ([3]; 9 of the mutants tested): < 0.04%
8AG Inc. (% wild-type) ([3]; mutant 9AA-1 (induced by 9AA)): < 0.04 % wild-type
8AG Inc. (% wild-type) ([3]; mutant 9AA-2 (induced by 9AA)): < 0.04 % wild-type
8AG Inc. (% wild-type) ([3]; mutant 9AA-3 (induced by 9AA)): < 0.04 % wild-type
8AG Inc. (% wild-type) ([3]; mutant 9AA-4 (induced by 9AA)): < 0.04 % wild-type
8AG Inc. (% wild-type) ([3]; mutant 9AA-5 (induced by 9AA)): < 0.04 % wild-type
8AG Inc. (% wild-type) ([3]; mutant BPL-1 (induced by βPL)): 0.1 % wild-type
8AG Inc. (% wild-type) ([3]; mutant BPL-2 (induced by βPL)): 2.5 % wild-type
8AG Inc. (% wild-type) ([3]; mutant BPL-3 (induced by βPL)): 7.1 % wild-type
8AG Inc. (% wild-type) ([3]; mutant BPL-4 (induced by βPL)): 1.8 % wild-type
8AG Inc. (% wild-type) ([3]; mutant BPL-5 (induced by βPL)): 1.2 % wild-type
8AG Inc. (% wild-type) ([3]; mutant ICR-1 (induced by ICR191)): < 0.04 % wild-type
8AG Inc. (% wild-type) ([3]; mutant ICR-2 (induced by ICR191)): < 0.04 % wild-type
8AG Inc. (% wild-type) ([3]; mutant ICR-3 (induced by ICR191)): 0.80 % wild-type
8AG Inc. (% wild-type) ([3]; mutant ICR-4 (induced by ICR191)): < 0.04 % wild-type
8AG Inc. (% wild-type) ([3]; mutant ICR-5 (induced by ICR191)): 11.8 % wild-type
8AG Inc. (% wild-type) ([3]; mutant NG-1 (induced by MNNG)): 0.04 % wild-type
8AG Inc. (% wild-type) ([3]; mutant NG-2 (induced by MNNG)): 5.1 % wild-type
8AG Inc. (% wild-type) ([3]; mutant NG-3 (induced by MNNG)): 2.2 % wild-type
8AG Inc. (% wild-type) ([3]; mutant NG-4 (induced by MNNG)): 4.9 % wild-type
8AG Inc. (% wild-type) ([3]; mutant NG-5 (induced by MNNG)): 3.2 % wild-type
8AG Inc. (% wild-type) ([3]; mutant S-1 (spontaneous)): 2.4 % wild-type
8AG Inc. (% wild-type) ([3]; mutant S-2 (spontaneous)): 1.7 % wild-type
8AG Inc. (% wild-type) ([3]; mutant S-3 (spontaneous)): 18.3 % wild-type
8AG Inc. (% wild-type) ([3]; mutant S-4 (spontaneous)): 5.9 % wild-type
8AG Inc. (% wild-type) ([3]; mutant S-5 (spontaneous)): 19.5 % wild-type
8AG incorporation rate of the wild-type control [4]: 5×10^-18 moles/cell-hr
Uptake in the control over time [4]: linear through the 2 hr incubation

Nc1c2ccccc2nc2ccccc12 [9AA, 9-aminoacridine]
induced mutant fractions (M.F.) [5]: significantly higher than background levels

COc1ccc2nc3cc(Cl)ccc3c(NCCCNCCCl)c2c1 [ICR-191]
induced mutant fractions (M.F.) [5]: significantly higher than background levels
8AG^R mutant fraction when cultures are allowed to grow before plating [6]: drops significantly and then stabilizes at a constant level

O=C1CCO1 [βPL, β-propiolactone]
ratio of 8AG^R cells to 8AG^S cells in the treated population ([7]; 0, 0.16, and 1.60 mM): did not suffer significantly
survival of the mixed population ([7]; high concentration (0, 0.16 and 1.60 mM tested)): killed a significant portion of the mixed population
induced mutant fractions (M.F.) [5]: significantly higher than background levels
